Legend:
[1] = system: E. coli S30 coupled in vitro transcription-translation system; test: Self-methylation of M.EcoRI gene in coupled in vitro transcription/translation, resistance to cleavage by EcoRI; type: biochemical; conditions: translation inhibited, in the presence of puromycin
Procedure: The PCR-amplified DNA-methylases genes described above are expressed in a prokaryotic in vitro coupled transcription/translation system designed for linear templates (Lesley et al., 1991). A commercial preparation of this system is used (E. coli S30 Extract System for Linear Templates; Promega) supplemented with T7 RNA polymerase and S-adenosyl methionine (SAM) at 80 μM concentration.
Methylation is assayed by measuring the resistance of DNA fragments labelled with DIG and biotin to cleavage by the cognate restriction enzyme using the Boehringer-Mannheim DIG-Biotin ELISA or with radioactively labelled DNA fragments and streptavidin coated magnetic beads. […] The absorbance (at 450 minus 650 nm) is measured after quenching with 0.5M H2SO4 (130 μl/well).
For the radioactive assay, the plasmids and PCR fragments described above are amplified by PCR using primers LMB2-Biotin (SEQ. ID. No. 9) and LMB3 and α-P^32-CTP to give P^32-labelled DNA fragments labelled at one end by biotin and which carry the T7 RNA polymerase promoter, the phage T7 gene 10 translational start site, the methyltransferase gene and the relevant M/R sites. […] The amount of radioactively-labelled DNA on the beads and in the supernatants is determined by scintillation. […]

[2] = system: coupled transcription-translation reaction; test: Production of active DHFR in a 2 hour coupled transcription-translation reaction; type: biochemical, E. coli; conditions: 0.1 mM, alone or in combination; 2 hour reaction

| Molecule | resistance to cleavage by EcoRI [1] | inhibition of the production of active DHFR [2] |
| --- | --- | --- |
| COc1ccc(C[C@H](N)C(=O)N[C@H]2[C@@H](O)[C@H](n3cnc4c(N(C)C)ncnc43)O[C@@H]2CO)cc1 [puromycin] | not observed |  |
| NADPH |  | does not cause any inhibition |

Reference: patent US7138233B2, “IN vitro sorting method” (Medical Research Council, priority 1997, dated 2006)
